Reference: patent US20260124240A1, “DRUG RESISTANT IMMUNE CELLS” (The Regents of the University of California, priority 2022, published 2026)

Experiments:
[1] = system: Heterozygous BCL2 G101V iPSC-derived NK cells (BCL2G101V/WT); assay: Venetoclax dose response / cell survival assay on heterozygous BCL2 G101V iPSC-derived NK cells; type: cell-based; settings: Homo sapiens, viability at 72 hours post treatment
Method: (§1) FIGS. 12A-12H: BCL2 G101V iPSC-derived NK cells are resistant to venetoclax and anti-apoptotic BCL2 family member levels are unchanged. Dose response curves for WT iPSC-derived NK (FIG. 12A), Homozygous BCL2 G101V iPSC-derived NK cells (FIG. 12B), and Heterozygous BCL2 G101V iPSC-derived NK cells (FIG. 12C) treated with Venetoclax and assessed for viability at 72 hours post treatment. FIG. 12D. Dose response for WT iPSC-derived NK and homozygous BCL2 G101V iPSC-derived NK cells treated with dexamethasone and assessed for viability at 72 hours post treatment. […] real-time PCR analysis of BCL2 (FIG. 12E), BCL-XL (FIG. 12F), and MCL1 (FIG. 12G) mRNA level for WT iPSC-derived NK and BCL2 G101V iPSC-derived NK cells vehicle or venetoclax treated. FIG. 12H. Immunoblots for BCL2, and BCL-XL protein levels with a β-actin loading control.
(§2) Resistance to venetoclax of the heterozygous and homozygous BCL2 G101V iPSC-derived NK cells was tested in cell survival assays.

[2] = system: luciferase-expressing, venetoclax-resistant MOLM-13 cells; assay: Mouse xenograft study (MOLM13 AML); type: in vivo; settings: NSG mice, 1×10^7 NK cells IV, venetoclax 50 mg/kg daily for 21 days where given
Method: FIG. 15: A schema of NK cell dosing regimen and venetoclax treatment plan. NSG mice were inoculated IV with 2.5×10^5 luciferase-expressing MOLM13 cells, and tumor engraftment was assessed by IVIS imaging 4 days later for baseline pre-treatment grouping. On day 4 after tumor inoculation, mice were either left untreated or treated with 1×10^7 WT iPSC-derived NK cells or BCL2 G101V iPSC-derived NK cells alone or in combination with venetoclax for 21 days. NK cells were supported by injection of IL-15 for the first week and IL-2 for three weeks with IVIS imaging done as indicated to monitor tumor progression.
Eight-week-old NOD/SCID/γc−/− (NSG) mice (Jackson Laboratories, n=5 per group) were used for in vivo experiments. Mice received 2.5×10^5 luciferase-expressing MOLM13 tumor cells intravenously. Mice were sub-lethally irradiated (225 cGy) 4 days after tumor engraftment. 107 NK cells/mouse were injected IV on the day of irradiation. NK cells were supported by the injection of IL-2 and IL-15 as reported previously 27, 28. […] Tumor burden was determined by BLI using the Xenogen IVIS Imaging system. […]
To evaluate the anti-tumor activity of BCL2G101V/G101V NK cells in vivo, BCL2G101V/G101V iPSC-derived NK cell killing of MOLM13 AML cells was assessed in a mouse xenograft tumor model. […] Tumor growth was monitored by bioluminescent imaging (BLI) (FIG. 16A).

[3] = system: WT iPSC-derived NK cells (BCL2WT/WT); assay: Venetoclax dose response / cell survival assay on WT iPSC-derived NK cells; type: cell-based, human
Method: as §1, §2

[4] = system: venetoclax-resistant MOLM13 cells; assay: Venetoclax sensitivity of venetoclax-resistant MOLM13 cells; type: cell-based
Method: The MOLM13 cells lines were cultured continuously in increasing concentrations of venetoclax over 6 weeks to generate and select for venetoclax-resistant cells. The resulting cells could be maintained in 3 μM venetoclax without toxicity. The resistant cells were cultured continuously in the presence of venetoclax.
(§3) For longer-term assays to examine the ability of BCL2G101V/G101V iPSC-derived NK cells to mediate effective killing of venetoclax-resistant AML cells, MOLM13 cells that are venetoclax-resistant were generated.

WT MOLM13 cells = assay: Venetoclax sensitivity of WT MOLM13 cells; type: cell-based; settings: Homo sapiens, MOLM-13
Text: as §3

[5] = dose of 400 mg/day; cited from earlier work
[6] = system: Homozygous BCL2 G101V iPSC-derived NK cells (1F6); assay: Venetoclax dose response / cell survival assay on homozygous BCL2 G101V (1F6) iPSC-derived NK cells; type: cell-based; settings: Homo sapiens; homozygous BCL2G101V/G101V (1F6) NK cells; viability at 72 hours post treatment; read-out: EC50 where 50% of the NK cells are killed by venetoclax
Method: as §1, §2

## CC1(C)CCC(CN2CCN(c3ccc(C(=O)NS(=O)(=O)c4ccc(NCC5CCOCC5)c([N+](=O)[O-])c4)c(Oc4cnc5[nH]ccc5c4)c3)CC2)=C(c2ccc(Cl)cc2)C1 [venetoclax]
[1]
  EC50: 3.55 µM
[2]
  median survival: 18.8 days
[3]; Homo sapiens, WT iPSC-derived NK cells, viability at 72 hours post treatment, read-out: EC50 where 50% of the NK cells are killed by venetoclax
  EC50: 0.0637 µM
[3]; at serum concentration of 2.3 μmol/L
  toxicity to unengineered NK cells: toxic
[4]; venetoclax-resistant MOLM13
  increased resistance to venetoclax compared to WT MOLM13 cells: over 100 fold
[4]; venetoclax-resistant MOLM13, selected over 6 weeks
  venetoclax concentration in which resistant cells could be maintained without toxicity: 3 µM
WT MOLM13 cells
  IC50: 0.024 µM
[5]
  serum concentration: 2.3 µM
[6]
  EC50: 6.02 µM
